From patent US9028856B2, “Synergistic pesticide compositions” (priority 2008, dated 2015)

How the values were obtained:
spiders = assay: Spider control field trial on structures (spider counts in treated and untreated plots); format: in vivo; settings: imidacloprid ca. 22 mg AI per sq. m; deltamethrin ca. 12 mg AI per sq. m
Description: Replicated plots (e.g., 1 meter sq. or as site dictates) were defined for treatment and observations. All living spiders in this area were counted, and the trial was begun by sweeping down all webbing, being careful not to harm the resident spiders in the process. The combinations were applied in the very sites formerly occupied by the spiders. The sites were re-visited intermittently, and total number of spiders in treated and untreated plots were counted. The evaluations were continued until the control failed, or as long as was practical. All formulations were diluted in water before treatment. All imidacloprid treatments were applied to the plots at the same rate of ca. 22 mg AI per sq. m. of surface area; deltamethrin was applied at the label rate of ca. 12 mg AI per sq. m. of surface area and served as a positive control. All treatments were replicated in three plots.

Aedes aegypti mosquito = assay: USDA Petri Dish Method, 3 min exposure to dipped fiberglass window screen; format: in vivo
Summary of the method: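 Fiberglass screens dipped in 1% deltamethrin or permethrin at 1.25, 1.0 or 0.05% AI, each with or without Suspend SC adjuvant, then drained and air-dried overnight. Twenty 4-6 day female mosquitoes exposed 3 min, then held on untreated card with sucrose. Knockdown scored over 1 h and mortality at 24 h; ≥3 replicates.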

[1] = tested on: housefly, Musca domestica; assay: Housefly continuous exposure on treated glazed tile (paper cup arena); format: in vivo
Description: Treatments were allowed to dry overnight. The housefly testing arena consisted of a 16 oz. paper cup where the bottom of the cup was removed and replaced with a piece of standard window screen. Ten adult houseflies (mixed ratio) were placed in each cup and covered with a 4″×5″ index card to prevent escape. Houseflies were continuously exposed to the treatment by inverting the testing arena and sliding the cup from the index card to the treated tile surface. Treatments were replicated a minimum of three times.

[2] = octanol-water partition coefficient (Log K ow), Table 1; cited from earlier work
[3] = tested on: Culex quinquefasciatus mosquito; assay: USDA Petri Dish Method, 3 min exposure to treated glazed tile (twenty 4-6 day old females); format: in vivo; settings: Table 50, fipronil/adjuvant in acetone, glazed tile, 3 min exposure
Summary of the method: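 Twenty 4-6 day old female Culex quinquefasciatus exposed 3 minutes to overnight-dried acetone-applied treatment, then moved to untreated card; at least three replicates. Knockdown scored at intervals over 1–3 hours, sucrose provided, mortality at 24 hours.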

For `CC1(C)[C@H](C(=O)O[C@H](C#N)c2cccc(Oc3ccccc3)c2)[C@@H]1C=C(Br)Br` [deltamethrin], the “suppression of spider populations relative to the untreated control (cross trial average)” value (spiders) was 83.4%, the “mortality at 24 hours after exposure” value (Aedes aegypti mosquito; 1% deltamethrin alone, treated screen) was 100% and the “efficacy of the substance alone (summary in words)” value (Aedes aegypti mosquito; Aedes aegypti, treated window screen) was “good knockdown”.
For `CC[S+]([O-])c1c(C#N)nn(-c2c(Cl)cc(C(F)(F)F)cc2Cl)c1N` (stereo not shown) [Ethiprole (1%)], the “Average % Knockdown & Mortality after 3 hr” value ([1]; Table 58, housefly, glazed tile, continuous exposure, 3 hr) was 0%, the “Average % Knockdown & Mortality after 5 hr” value ([1]; Table 58, housefly, glazed tile, continuous exposure, 5 hr) was 0% and the “Average % Knockdown & Mortality after 7 hr” value ([1]; Table 58, housefly, glazed tile, continuous exposure, 7 hr) was 3%. The “Average % Knockdown & Mortality after 24 hr” value ([1]; Table 58, housefly, glazed tile, continuous exposure, 24 hr) was 97% and the “Average % Knockdown & Mortality after 1 hr” value ([1]; Table 58, housefly, glazed tile, continuous exposure, adjuvant = Compound A 1% + Compound B 0.5%, 1 hr) was 0%.
In the case of `CC[S+]([O-])c1c(C#N)nn(-c2c(Cl)cc(C(F)(F)F)cc2Cl)c1N` (stereo not shown) [ethiprole], the “mortality after about 6 hours” value ([1]; ethiprole 0.01% with or without adjuvant (FIG. 52)) is given as “about 6%” and the “Log P” value [2] is given as 2.90.
In the case of `CNC(=O)Oc1cccc2c1OC(C)(C)O2` [bendiocarb], the “Log P” value [2] is listed as 1.7.
With `O=[N+]([O-])NC1=NCCN1Cc1ccc(Cl)nc1` [imidacloprid] the “suppression of spider populations relative to the untreated control (cross trial average)” value (spiders) was “around 24.5%”.
For `N#Cc1nn(-c2c(Cl)cc(C(F)(F)F)cc2Cl)c(N)c1[S+]([O-])C(F)(F)F` (stereo not shown) [Fipronil (.01%)], the “Average % Knockdown & Mortality after 30 min” value [3] was 0%, the “Average % Knockdown & Mortality after 60 min” value [3] was 0% and the “Average % Knockdown & Mortality after 2 hr” value [3] was 0%. For the same molecule, the “Average % Knockdown & Mortality after 3 hr” value [3] was 0% and the “Average % Knockdown & Mortality after 24 hr” value [3] was 48%.
With `CC1(C)[C@H](C(=O)O[C@H](C#N)c2cccc(Oc3ccccc3)c2)[C@@H]1C=C(Br)Br` [deltamethrin (1%)] the “Average % Knockdown & Mortality after 3 min” value (Aedes aegypti mosquito; 3 min, Table 26, aqueous deltamethrin/adjuvant, dipped screen, 3 min exposure) was 0%, the “Average % Knockdown & Mortality after 9 min” value (Aedes aegypti mosquito; 9 min, Table 26, aqueous deltamethrin/adjuvant, dipped screen, 3 min exposure) was 0% and the “Average % Knockdown & Mortality after 15 min” value (Aedes aegypti mosquito; 15 min, Table 26, aqueous deltamethrin/adjuvant, dipped screen, 3 min exposure) was 0%. For the same molecule, the “Average % Knockdown & Mortality after 30 min” value (Aedes aegypti mosquito; 30 min, Table 26, aqueous deltamethrin/adjuvant, dipped screen, 3 min exposure) was 27%, the “Average % Knockdown & Mortality after 60 min” value (Aedes aegypti mosquito; 60 min, Table 26, aqueous deltamethrin/adjuvant, dipped screen, 3 min exposure) was 84% and the “Average % Knockdown & Mortality after 24 hr” value (Aedes aegypti mosquito; 24 hr, Table 26, aqueous deltamethrin/adjuvant, dipped screen, 3 min exposure) was 100%.
In the case of `N#Cc1nn(-c2c(Cl)cc(C(F)(F)F)cc2Cl)c(N)c1[S+]([O-])C(F)(F)F` (stereo not shown) [Fipronil (.001%)], the “Average % Knockdown & Mortality after 30 min” value [3] is reported as 0%, the “Average % Knockdown & Mortality after 60 min” value [3] is reported as 0% and the “Average % Knockdown & Mortality after 2 hr” value [3] is reported as 0%. For the same molecule, the “Average % Knockdown & Mortality after 3 hr” value [3] was 0% and the “Average % Knockdown & Mortality after 24 hr” value [3] was 2%.
